These are literature values, as cited in publication PMC12846068, “Insights into Transport Function of the Murine Organic Anion-Transporting Polypeptide OATP1B2 by Comparison with Its Rat and Human Orthologues” (Toxics, 2025).

One may read the Km as the concentration of substrate that gives half-maximal velocity.

The target in the series is T1, rOATP1B2 (Rattus norvegicus, UniProt Q9QZX8).
T1 construct: The full-length mOATP1B2 and rOATP1B2 consist of 689 and 678 amino acids
T1 sequence (Q9QZX8 1-687): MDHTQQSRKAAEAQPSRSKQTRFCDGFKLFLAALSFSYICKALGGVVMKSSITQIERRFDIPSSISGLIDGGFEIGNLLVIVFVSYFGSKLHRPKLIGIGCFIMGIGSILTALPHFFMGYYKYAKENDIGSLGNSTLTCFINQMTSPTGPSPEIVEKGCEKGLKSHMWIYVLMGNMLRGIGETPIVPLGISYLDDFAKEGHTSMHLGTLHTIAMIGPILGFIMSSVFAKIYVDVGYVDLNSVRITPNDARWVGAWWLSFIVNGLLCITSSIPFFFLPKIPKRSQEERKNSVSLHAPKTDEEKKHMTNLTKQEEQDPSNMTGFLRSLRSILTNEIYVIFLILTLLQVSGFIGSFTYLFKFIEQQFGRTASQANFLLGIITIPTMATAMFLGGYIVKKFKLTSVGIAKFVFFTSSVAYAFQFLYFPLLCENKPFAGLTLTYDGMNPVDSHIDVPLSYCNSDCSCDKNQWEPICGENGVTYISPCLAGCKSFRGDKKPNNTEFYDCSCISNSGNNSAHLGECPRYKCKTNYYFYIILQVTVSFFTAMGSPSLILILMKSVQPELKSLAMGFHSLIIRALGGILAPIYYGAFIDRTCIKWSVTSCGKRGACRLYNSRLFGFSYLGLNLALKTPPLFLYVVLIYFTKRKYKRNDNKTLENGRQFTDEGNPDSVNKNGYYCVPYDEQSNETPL
The arrangement: method as in Ishida et al. (2018) [9]. The conditions noted are these: ref Ishida et al. (2018) [9]; read-out: Km, rOATP1B2-mediated uptake; cited from earlier work.

Take `CC(C)c1nc(N(C)S(C)(=O)=O)nc(-c2ccc(F)cc2)c1/C=C/[C@@H](O)C[C@@H](O)CC(=O)O` [Rosuvastatin, rosuvastatin]: the Km is 28.1 µM.
